Experiment [1] deals with mouse. Description: Formalin test (acute/early and late phase) in mice. Format: in vivo. As to conditions: 150 mg/kg i.p., mice. Here is the method: The formalin test was performed according to the method of Tjølsen, et al. (October 1992) “The formalin test: an evaluation of the method.” Pain 51(1): 5-17. An injection of 0.5% formalin is made into the plantar region of the right hind paw of a mouse. This elicits a distinct behavioral profile in response to the formalin injection characterized by the mouse licking the affected paw. The behavior is characteristically biphasic in nature. For example, immediately following the injection the mouse intensely licks the paw for approximately 5-10 minutes (“min.”) This initial behavior was considered phase 1 (acute) and is thought to be mediated primarily by chemical activation of local C-fibers. The acute phase is followed by a brief latent (usually <5 min) period where there is little or no behavioral activity. A more prolonged (about 20 to 30 min) period of licking then ensues which constitutes phase 2 of the response (late phase). See e.g., Tjølsen, et al. (Feb. 7, 1991) “Antinociceptive effect of paracetamol in rats is partly dependent on spinal serotonergic systems. Eur J Pharmacol. 193(2): 193-201 and Tjølsen, et al. (June 1991) Lesions of bulbo-spinal serotonergic or noradrenergic pathways reduce nociception as measured by the formalin test. Acta Physiol Scand. 142(2): 229-36, the disclosures of each of which are hereby incorporated by reference in its entirety.
It is in these tubes that mice are later observed for the licking activity for the duration of the experiment. Following the conditioning, the test substance was administered i.p. in a dose equivalent to the MES ED50 and the mouse returned to its home tube. At the TPE of the drug, the formalin is injected subdermally into the plantar surface of the right hind foot. It is given in a volume of 20 μl with a 27 gauge stainless steel needle attached to a Hamilton syringe. The bevel of the needle was placed facing down toward the skin surface. […] The cumulative length of licking for each 2-min time period was measured. […] Animals are euthanized following the conclusion of the experiment.
Area under the curve (AUC) and subsequent percent of control for drug-treated animal groups is determined using the GraphPad Prism Version 3.03. Total AUC was calculated for both the test and control groups for both the acute and inflammatory phases. The AUC for individual animals for each phase was also calculated and converted to percentage of total AUC of control. The average and S.E.M. for both the drug treated and control percentages were calculated and tested for significant difference.

The test system of experiment [2] is Sprague-Dawley rats. Description: Kainic acid induced seizures in rats. Also on record: key to Seizures Severity Mean ± SD (grade 0 to IV): seizure grade 0 = no response to IV = status epilepticus. The settings on record: 20 μmoles/kg IP; for Seizures Severity Mean ± SD (grade 0 to IV) / Seizures Mean ± SD (1 = yes, 0 = no): KA 15 mg/kg i.p.; for Seizures Mean ± SD (1 = yes, 0 = no): 2 hours; for change in vivo at 20 µmol/kg: Rattus norvegicus, 2 h, vs DMSO control. Format: in vivo, rat. Here is the method: Formulation of kainic acid was performed by NTS as a stock solution by reconstituting kainic acid with (100%) saline that was stored at 4° C. Vehicle control received saline solution. […] The research investigators were blinded to the treatment groups.
Solutions were prepared fresh daily just prior to use; dosing of all 10 rats with any given compound occurred on a single day after preparing the dosing solution. […] Unused remaining dosing solutions were stored frozen.
Animals were maintained in a temperature- and light-controlled environment in accord with the principles and procedures of the National Institutes of Health Guidelines for Care and Use of Laboratory Animals. Seizures were induced in adult, male Sprague-Dawley rats (260-300 g) by injection of KA (15 mg/kg, i.p.). In addition, animals were injected with test compounds following kainic acid to determine the effects on protection from epilepsy. Animals were monitored behaviorally for seizures for 2 hours after injection.
Seizure activity was initially characterized as either yes (1) or no (0) within a 2 hour period following injection of KA. A seizure severity grade was assigned based on the maximal response achieved on a scale from 0 to IV as follows: 0, no response; I, single limb clonus and scratching; II, multiple limb clonus and staggering gait; […], limb clonus, tonic extension of limbs and falling; IV, continuous grade III seizures for longer than 30 min (status epilepticus).
The results were expressed as the mean±standard deviation (SD). The significance of difference in the epileptic data was analyzed using a one-way analysis of variance (ANOVA) followed by Fisher's post hoc test. Repeated-measures ANOVA were computed on the monitoring data and the significance of the difference among groups were evaluated by Fisher's post hoc test.
All groups were subjected to kainic acid.
The induction of seizures in rats with kainic acid was determined as either yes seizures (1) or no seizures (0).

Experiment [3] has as its target T1, Na+K+Cl− co-transporter (Rattus norvegicus, UniProt E9PTX9).
T1 construct: endogenous in cells; host or cells: A7r5 cells
T1 sequence (E9PTX9 1-1203): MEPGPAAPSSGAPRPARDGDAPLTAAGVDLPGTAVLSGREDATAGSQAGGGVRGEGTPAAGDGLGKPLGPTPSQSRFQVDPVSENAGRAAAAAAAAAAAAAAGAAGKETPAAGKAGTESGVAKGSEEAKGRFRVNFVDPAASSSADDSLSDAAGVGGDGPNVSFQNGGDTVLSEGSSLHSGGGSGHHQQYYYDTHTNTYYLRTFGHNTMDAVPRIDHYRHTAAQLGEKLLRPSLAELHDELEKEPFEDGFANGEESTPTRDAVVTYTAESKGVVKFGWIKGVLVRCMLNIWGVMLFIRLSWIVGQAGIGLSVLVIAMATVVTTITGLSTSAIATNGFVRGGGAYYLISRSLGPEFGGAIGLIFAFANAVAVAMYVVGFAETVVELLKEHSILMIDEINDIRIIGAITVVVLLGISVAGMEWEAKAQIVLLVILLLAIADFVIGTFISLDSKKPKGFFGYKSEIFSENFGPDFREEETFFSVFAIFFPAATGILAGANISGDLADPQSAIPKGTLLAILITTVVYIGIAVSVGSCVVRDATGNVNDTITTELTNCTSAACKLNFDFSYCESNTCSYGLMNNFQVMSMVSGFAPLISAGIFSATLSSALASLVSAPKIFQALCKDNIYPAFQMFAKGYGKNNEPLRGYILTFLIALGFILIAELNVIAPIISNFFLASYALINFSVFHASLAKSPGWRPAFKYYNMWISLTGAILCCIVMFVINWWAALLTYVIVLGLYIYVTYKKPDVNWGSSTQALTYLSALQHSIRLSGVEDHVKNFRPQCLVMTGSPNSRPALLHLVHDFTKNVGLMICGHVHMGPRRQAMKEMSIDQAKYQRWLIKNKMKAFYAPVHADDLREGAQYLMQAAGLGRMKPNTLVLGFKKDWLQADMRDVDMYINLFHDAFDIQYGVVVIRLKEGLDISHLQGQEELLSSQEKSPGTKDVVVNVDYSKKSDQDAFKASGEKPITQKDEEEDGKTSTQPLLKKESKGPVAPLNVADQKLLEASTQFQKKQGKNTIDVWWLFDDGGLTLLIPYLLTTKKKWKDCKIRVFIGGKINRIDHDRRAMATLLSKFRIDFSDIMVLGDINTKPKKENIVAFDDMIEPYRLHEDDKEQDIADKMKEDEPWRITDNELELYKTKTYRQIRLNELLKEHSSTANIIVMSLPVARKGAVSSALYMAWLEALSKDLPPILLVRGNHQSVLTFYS
Nature of the experiment: Na+K+Cl− cotransporter assay, 86Rb uptake in A7r5 cells. The format is cell-based. The settings on record: 10 minutes at 37° C.; for inhibition at 10 µM: read-out: % Inhibition of Control Values; for remaining activity at 10 µM: read-out: % of Control Value. Here is the method:
Na^+K^+Cl^− co-transporter activity was measured in vitro in A7r5 cells by measuring their uptake of ^86Rb (0.2 μCi) in 10 minutes at 37° C. as detected by scintillation counting. See Chassande, et al. (1988) “The Na^+/K^+/Cl^− Cotransport in C6 glioma cells. Properties and role in volume regulation.” Eur. J. Biochem. 171: 425433.

Where [4] appears, read: read-out: Percent reduction in Seizures.
Where [5] appears, read: read-out: Percent reduction in Seizures Severity.

Each structure is given as a SMILES string. Read-outs that look alike come from different tables or passages of the source.

Turning to `CCCCNc1cc(C(=O)N(Cc2ccccc2)Cc2ccccc2)cc(S(N)(=O)=O)c1Oc1ccccc1` [NTP-2008, N,N-Dibenzyl 3-Aminosulfonyl-5-butylamino-4-phenoxybenzamide], in experiment [1], the “% of Control, Acute” value worked out at 63.69%; the “% of Control, Late Phase” value worked out at 10.66%; the “Treated (AUC of licking time), Acute” value came to 73.94; the “Treated (AUC of licking time), Late Phase” value (from here on “Treated … Late Phase”) was 66.42. Also, in experiment [2], the “Seizures Severity Mean ± SD (grade 0 to IV)” value (shortened to “Seizures Severity Mean ± SD”) worked out at 0.1000 ± 0.3162 and the “Seizures Mean ± SD (1 = yes, 0 = no)” value is reported as 0.1000 ± 0.3162. Moreover, the change in vivo at 20 µmol/kg in experiment [2] (setting [4]) was -88.9%. Further, the change in vivo at 20 µmol/kg in experiment [2] (setting [5]) is -95.8%. Besides, in experiment [3], the inhibition – broadly, the drop in the measured response relative to a control, in per cent – at 10 µM stood at 17% and the remaining activity at 10 µM is 82.8%.
Consider `CCCCNc1cc(C(=O)OCC(=O)N(C)C)cc(S(N)(=O)=O)c1Oc1ccccc1` [NTP-2011, N,N-Dimethylaminocarbonylmethyl 3-Aminosulfonyl-5-butylamino-4-phenoxybenzoate], for which, in experiment [1], the “% of Control, Acute” value is listed as 53.37%; the “% of Control, Late Phase” value was determined as 0.72%; the “Treated (AUC of licking time), Acute” value came to 78.55; the “Treated … Late Phase” value was 5.43. For the same molecule, in experiment [2], the “Seizures Severity Mean ± SD” value is given as 0.3000 ± 0.6749 and the “Seizures Mean ± SD (1 = yes, 0 = no)” value amounted to 0.2000 ± 0.4216. The change in vivo at 20 µmol/kg in experiment [2] (setting [4]) was -77.8%. Besides, in experiment [2] (setting [5]), the change in vivo at 20 µmol/kg is -87.5%. In experiment [3], the inhibition at 10 µM was determined as 13% and the remaining activity at 10 µM turned out to be 87.4%.
For `CCCCNc1cc(C(=O)OCOC(=O)C(C)(C)C)cc(S(N)(=O)=O)c1Oc1ccccc1` [NTP-2012, t-Butylcarbonyloxymethyl 3-Aminosulfonyl-5-butylamino-4-phenoxybenzoate], in experiment [1], the “% of Control, Acute” value came to 48.5%; the “% of Control, Late Phase” value came out at 0.49%; the “Treated (AUC of licking time), Acute” value came to 75.07; the “Treated … Late Phase” value came to 5.08. Also, in experiment [2], the “Seizures Severity Mean ± SD” value was 0.2000 ± 0.4216 and the “Seizures Mean ± SD (1 = yes, 0 = no)” value is on record as 0.2000 ± 0.4216. Also, the change in vivo at 20 µmol/kg in experiment [2] (setting [4]) is -77.8%. In experiment [2] (setting [5]), the change in vivo at 20 µmol/kg was -91.7%. In addition, in experiment [3], the inhibition at 10 µM worked out at 35% and the remaining activity at 10 µM amounted to 65.5%.

The values above are taken from patent US9682928B2 (NeuroPro Therapeutics, Inc., priority 2009, dated 2017).
